Measurements from PMC7849011, “Defining the Antimalarial Activity of Cipargamin in Healthy Volunteers Experimentally Infected with Blood-Stage Plasmodium falciparum” (Antimicrobial Agents and Chemotherapy, 2021).
Read-outs that look alike come from different tables or passages of the source.

Columns and labels:
[1] = Population PK model (two-compartment); format: in vivo, human
Experimental: Data preparation, exploration, model definition, model evaluation and simulations were performed in R (version 3.5.1) and the R package IQRtools (version 1.0.6; IntiQuan, Basel, Switzerland) within the software package MonolixSuite 2018R2 (Lixoft, Antony, France). The MIC and the minimum parasiticidal concentration that achieves 90% of maximum effect (MPC90) were derived from the PK/PD model. Simulations were performed to predict the minimum effective single dose, defined as the dose that clears 10^9 parasites/ml. Further detail on PK/PD modeling methods is presented in Text S1.
Pharmacokinetic/Pharmacodynamic modelling methods and results […]
The objectives of the PK/PD modelling anal ysis w ere:
1. To develop a population PK model of cipar gamin in healthy subjects inoculated with blood stage P. falciparum .
2. To char acterize the PK/PD relationship between cipargamin pharmacokinetics and parasite cl ear ance in h eal th subjects inoculated with blood stage P. falcipar um .
3. To determine the minimum inhibitory concent ration (M IC ) of cipargamin .
4. To establish the minimum effective cipar gamin single dose required to kill 10 9
Data preparation, exploration, model definition, model evaluation and simulations were performed in R (version 3.5.1) and the R package IQRtools (version 1.0.6, IntiQuan GmbH, Basel, Switzerland) withi n the software package MonolixSuite2018R2 (Li xoft, Anton y, Fran ce) which implemen ts stochastic approx imation ex pectation-maximisation (SAEM) algorithm for parameter estimation.
One-, two- and three-compartment with different absorption and elimination models were tested. Zero- and first-order absorption models wi th or without lag time were examined. Data below the lower limit of quantitation ( LLO Q; 0.001 µg/ m L) were treated using a left - censoring method. Between subject vari abilit y ( BSV) of the PK parameters was assumed to be normally distributed on log -scale. The random effects across the par ameters within an individual were modelled according to a multivari ate normal distribution (MVN). BS V w as […]
supported by the data.The residual unexplained variabilit y (RUV) was tested using a proportional or combined error models.
Population PK/PD modelling
A sequential PK/PD modelling approach was used in which the empirical Bayes estimates of individual PK parameters were us ed as r egression parameters for the PK/P D model. The observations below the limit of detection (LOD; 10 parasites/mL) were mo del led using a l eft-censoring method. In this anal ysis, the changes in parasitemia over time in the presen ce of antimalarial dru g are ass umed to be a result of the differen ce b etween p ar asite growth rate (k grow ) and the r ate at wh ich parasites are killed b y the drug (k k ill ) with a baseline parasitemia (P L base ) at time t 0 (time of inoculation). Diff erent structural PK/PD models were tested to assess the relationship of cipar gamin plasma concentration on the parasite ki lling rate. The E max model assumed a direct effect of cipargamin plasma concent rations on parasite killing.
The turnover model assumed an indirect effect of cipargamin plasma concentrations on parasite killing due to lag in the PD processes (i.e. the kinetics of dru g-receptor binding). The effect compartment mod el assumed an indirect ef fect of cipar gamin plasm a concentration on parasite killing due to biophase equilibration. […]

[2] = cited from earlier work
Plasmodium falciparum = settings: cited from earlier work
Plasmodium berghei = test system: Plasmodium berghei; parameters: method as in PMID 25114127, PMID 25487807; settings: human PK data with preclinical PK/PD analysis; cited from earlier work
[3] = 25 P. falciparum patients, single doses of 10, 15, 20 or 30 mg
[4] = P. falciparum patient, day 6, not considered related
[5] = P. vivax patient, day 9, 30 mg per day for 3 days

## C[C@H]1Cc2c([nH]c3cc(Cl)c(F)cc23)[C@@]2(N1)C(=O)Nc1ccc(Cl)cc12 [cipargamin]
[1]; final population PK model
  CL/F, estimate (RSE %): 5.5 (10.7) L/h
  Vc/F, estimate (RSE %): 64.4 (8.9) L
[1]; human, in vivo
  Q1/F, estimate (RSE %): 12.9 (9.0) L/h
  Vp1/F, estimate (RSE %): 107 (4.8) L
  ka, estimate (RSE %): 0.919 (4.6) /h
[2]; 10 mg, patients with naturally acquired malaria
  AUC0–∞: 6400 ng·h/mL
[2]; 30 mg per day for 3 days, 11 P. falciparum and 10 P. vivax patients
  LFT abnormalities: three subjects displayed LFT abnormalities
[2]; [3]
  patients with increased ALT: only one patient displayed increased ALT
  patients with increased blood alkaline phosphatase: 40%
  subjects with hyperbilirubinemia: 20%
[2]; [4]
  increased ALT: 192 U/liter
  increased AST: 121 U/liter
[2]; [5]
  peak ALT: 241 U/liter
  peak AST: 106 U/liter
[2]; other P. vivax patient, day 6
  peak ALT: 78 U/liter
  peak AST: 63 U/liter
[2]; single 75-mg dose, cohort of 11 P. falciparum patients, ref unpublished, NCT01860989
  patients with asymptomatic transient ALT elevations (>3 × ULN): four patients had asymptomatic transient ALT elevations
Plasmodium falciparum
  in vitro activity against P. falciparum stages: active against both asexual and sexual stages
  inhibition of early- and late-stage gametocyte development in vitro: potent inhibitor
  inhibition of oocyst development in vitro: potent inhibition
Plasmodium berghei
  daily dose predicted to be sufficient to clear parasitemia in malaria patients: 30 mg
